# Measurements: US20260216294A1, “BETA 2-ADRENERGIC RECEPTOR AGONISTS FOR TREATMENT OR PREVENTION OF MUSCLE WASTING” (ATROGI AB, priority 2023, published 2026)
# Legend:
# [1] = tested on: L6-myotubes; test: Glucose uptake in differentiated L6-myotubes (Biological Example 2); assay type: cell-based; settings: for Emax at 10 µM: read-out: Biological example 2 (GU)
# Outline: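 Uptake was quantified as radioactivity in 0.2 M NaOH lysates after a 10 min pulse of 50 nM ^3H-2-deoxyglucose. The pulse followed two agonist exposures at 1×10^−5 M final (isoprenaline or test compound): 1 h 40 min, then 20 min in glucose-free medium after washing. L6 myotubes had been starved overnight in medium with 0.5% fatty-acid-free BSA.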
# [2] = tested on: L6-myotubes; test: Measurement of intracellular cAMP levels in differentiated L6-myotubes (Biological Example 3); assay type: cell-based; settings: 0.25 h
# Outline: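 Intracellular cAMP quantified by AlphaScreen after ethanol extraction and lysis of L6 myotubes. Cells were serum-starved overnight, then exposed for 15 min to compound (final 1×10^−5 M) or isoprenaline in IBMX-containing (1 mM) HBSS buffer, pH 7.4.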
# [3] = glucose uptake, compound at 10 μM relative to isoproterenol at 10 μM
# [4] = intracellular cAMP, compound at 10 μM relative to isoproterenol at 10 μM
# [5] = glucose uptake in differentiated L6-myotubes, compound at 10 μM, activity relative to isoproterenol at 10 μM
# [6] = intracellular cAMP in differentiated L6-myotubes, compound at 10 μM, activity relative to isoproterenol at 10 μM
Compound,"Emax at 10 µM [1, 3] [%]","Emax at 10 µM [2, 4] [%]","Emax at 10 µM [1, 5] [%]","Emax at 10 µM [2, 6] [%]","Biological example 2 (GU) [1, 5]"
"CCCCNC[C@H](O)c1csc(C(F)(F)F)n1 [Compound 72, (S)-2-(butylamino)-1-[2-(trifluoromethyl)-1,3-thiazol-4-yl]-1-ethanol]",25 to 50,< 25,–,–,–
CC1(C)CCC[C@H]([C@H](O)c2cccc(Cl)c2)N1 [Compound 165],25 to 50,< 25,–,–,–
CCC[C@H]1CCC[C@@H]([C@H](O)c2cccc(Cl)c2)N1 [Compound 123],25 to 50,< 25,–,–,–
CN(C)S(=O)(=O)[C@H]1CC[C@@H](CC(C)(C)NC[C@H](O)c2cncc(F)c2)CC1 [Compound 471],–,–,> 75,50 to 75,–
CC(C)(C[C@H]1CC[C@H](NC(=O)C2CCC2)CC1)NC[C@H](O)c1cccc(F)c1 [Compound 431],–,–,> 75,50 to 75,–
"CCCCNC(C)C(O)c1ccc(O)cc1 (stereo not shown) [Compound 12, 2-(butylamino)-1-(p-hydroxyphenyl)-1-propanol]",50 to 75,< 25,–,–,–
CCC[C@H]1CCC[C@@H]([C@H](O)c2cccc(O)c2)N1 [Compound 122],50 to 75,< 25,–,–,–
"O[C@H](c1cccc(F)c1)C12CCC(CCc3ccc(Cl)cc3)(CC1)N2 [Compound 528, (R)-{4-[2-(p-chlorophenyl)ethyl]-7-azabicyclo[[2.2.1]]hept-1-yl}(m-fluorophenyl)methanol]",–,–,< 25,< 25,–
"O[C@@H](CNC[C@H]1CC[C@H](OCc2ccccc2)CC1)c1cncc(F)c1 [Compound 273, (R)-1-(5-fluoro-3-pyridyl)-2-({[(1r,4R)-4-(benzyloxy)cyclohexyl]methyl}amino)-1-ethanol]",–,–,25 to 50,< 25,–
"CCCC(C)NCC(O)c1ccc(Cl)c(O)c1 (stereo not shown) [Compound 35, 1-(4-chloro-3-hydroxyphenyl)-2-(1-methylbutylamino)-1-ethanol]",> 75,< 25,–,–,–
"CCCCNCC(O)c1ccncc1 (stereo not shown) [Compound 48, 2-(butylamino)-1-(4-pyridyl)-1-ethanol]",25 to 50,< 25,–,–,–
CCCC1(CCC)CC[C@H]([C@H](O)c2cccc(F)c2)N1 [Compound 159],50 to 75,< 25,–,–,–
"COc1ccc(C[C@@]2(C)CC[C@H]([C@H](O)c3cccc(F)c3)N2)cc1 [Compound 366, (R)-{(2R,5R)-5-[(p-methoxyphenyl)methyl]-5-methyl-2-pyrrolidinyl}(m-fluorophenyl)methanol]",–,–,> 75,25 to 50,–
CC1(C)CCC[C@@H]([C@H](O)c2ccccc2F)N1 [Compound 193],> 75,25 to 50,–,–,–
CS(=O)(=O)N[C@H]1CC[C@H](CNC[C@H](O)c2cccc(F)c2)CC1 [Compound 311],–,–,50 to 75,< 25,–
"CC1(C)C[C@H]([C@H](O)c2ccccc2F)N1 [Compound 204, (R)-[(R)-4,4-dimethyl-2-azetidinyl](o-fluorophenyl)methanol]",–,–,> 75,25 to 50,–

Compound,"Emax at 10 µM [1, 3] [%]","Emax at 10 µM [2, 4] [%]","Emax at 10 µM [1, 5] [%]","Emax at 10 µM [2, 6] [%]","Biological example 2 (GU) [1, 5]"
"COc1ccc(C[C@@H]2CC[C@H]([C@H](O)c3cccc(F)c3)N2)cc1 [Compound 373, (R)-{(2R,5S)-5-[(p-methoxyphenyl)methyl]-2-pyrrolidinyl}(m-fluorophenyl)methanol]",–,–,> 75,25 to 50,–
"CC(=O)N(Cc1ccccc1)[C@H]1CC[C@H](C[C@@H]2CC[C@H]([C@H](O)c3cccc(F)c3)N2)CC1 [Compound 482, N-[(1S,4r)-4-({(2S,5R)-5-[(R)-(m-fluorophenyl) hydroxymethyl]-2-pyrrolidinyl}methyl)cyclohexyl]-N-benzylacetamide]",–,–,< 25,< 25,–
"CC12CC(C1)[C@@H]([C@H](O)c1cncc(F)c1)N2 [Compound 223, (R)-{(S)-1-methyl-2-azabicyclo[[2.1.1]]hex-3-yl}(5-fluoro-3-pyridyl)methanol]",–,–,25 to 50,< 25,–
CO[C@H]1CC[C@H](C[C@@H]2CC[C@H]([C@H](O)c3cncc(F)c3)N2)CC1 [Compound 333],–,–,25 to 50,< 25,–
"O[C@@H](c1ccccc1F)C12CCC(CCc3cccnc3)(CC1)N2 [Compound 444, (R)-(o-fluorophenyl){4-[2-(3-pyridyl)ethyl]-7-azabicyclo[[2.2.1]]hept-1-yl}methanol]",–,–,–,50 to 75,"+++ (If a compound at 10 μM shows activity of more than 75% of that of isoproterenol at 10 μM, the activity is denoted with +++)"
"CC(=O)N(Cc1ccccc1)[C@H]1CC[C@H](C[C@@H]2CC[C@H]([C@@H](O)c3cccc(F)c3)N2)CC1 [Compound 481, N-[(1S,4r)-4-({(2S,5R)-5-[(S)-(m-fluorophenyl) hydroxymethyl]-2-pyrrolidinyl}methyl)cyclohexyl]-N-benzylacetamide]",–,–,< 25,< 25,–
"COC(=O)[C@H]1CC[C@@H](C(C)(C)NC[C@H](O)c2cncc(F)c2)CC1 [Compound 321, (1S,4s)-8-[(R)-2-(5-fluoro-3-pyridyl)-2-hydroxyethylamino]-7-methoxy-p-menthan-7-one]",–,–,50 to 75,< 25,–
"CC1(C)CCC[C@H]([C@@H](O)c2ccccc2F)N1 [Compound 176, (S)-[(R)-6,6-dimethyl-2-piperidyl](o-fluorophenyl)methanol]",> 75,25 to 50,–,–,–
"CC12CCC([C@@H](O)c3ccccc3F)(CC1)N2 [Compound 180, (S)-(o-fluorophenyl)(4-methyl-7-azabicyclo[[2.2.1]]hept-1-yl)methanol]",> 75,< 25,–,–,–
"CC(C)(C)NC[C@H](O)c1ccccc1F [Compound 78, (R)-2-(tert-butylamino)-1-(o-fluorophenyl)-1-ethanol]",> 75,25 to 50,–,–,–
"O[C@@H](CNCCC[C@H]1CC[C@@H](OCc2ccccc2)CC1)c1cncc(F)c1 [Compound 275, (R)-1-(5-fluoro-3-pyridyl)-2-{3-[(1s,4R)-4-(benzyloxy)cyclohexyl]propylamino}-1-ethanol]",–,–,50 to 75,< 25,–
"CCC[C@H]1CCC[C@H]([C@H](O)c2ccccc2F)N1 [Compound 93, (R)-[(2R,6S)-6-propyl-2-piperidyl](o-fluorophenyl)methanol]",25 to 50,< 25,–,–,–
"CC1(C)CCC([C@H](O)c2ccccc2F)N1 (stereo in doubt) [Compound 175, (R)-[(R)-5,5-dimethyl-2-pyrrolidinyl](o-fluorophenyl)methanol]",> 75,25 to 50,–,–,–
"Cc1ncccc1[C@@H](O)CNC(C)(C)C [Compound 376, (R)-2-(tert-butylamino)-1-(2-methyl-3-pyridyl)-1-ethanol]",–,–,> 75,25 to 50,–
"O[C@@H](CNC[C@H]1CC[C@H](OCc2ccccc2)CC1)c1cccc(F)c1 [Compound 271, (R)-1-(m-fluorophenyl)-2-({[(1r,4R)-4-(benzyloxy)cyclohexyl]methyl}amino)-1-ethanol]",–,–,25 to 50,< 25,–
CC(C)(CC[C@H]1CC[C@H](N)CC1)NC[C@H](O)c1cncc(F)c1 [Compound 358],–,–,25 to 50,< 25,–
